Measurements: patent US8609342B2, “Reporter gene assay method” (Otsuka Pharmaceutical Co., Ltd., priority 2001, dated 2013)

Columns and labels:
CHO-K1 cells [1] = assay type: cell-based, hamster
Description: (§1) First, each test substance is dissolved in DMSO to a concentration of 10^−3 M, and the solution was 10-fold diluted stepwise (serial dilution) to give diluted test sample solutions having a test substance concentration of 10^−3 M to 10^−9 M. Then, each diluted sample solution was 100-fold diluted using a solution prepared by adding 5×10^−9 M) of 5α-dehydrotestosterone to DEMEM/F-12 medium (Gibco) (the test substance concentration becoming 10^−5 M to 10^−11 M).
(§2) CHO-K1 cells were developed on a 96-well plate to a size of about 8000 cells/84 μL of medium per well.
(§3) Separately, a solution for transfection was prepared by diluting 1 ng of pZeoSV-2-AR (prepared above in (1)), 50 ng of pIND ARE-B10 (prepared above in (2)) and 4 ng of pcDNA-EGFP (prepared above in (3)) with 6.25 μL of DMEM/F-12 medium and adding 0.15 μL of FuGENE6™ (Roche) to the dilution.
(§4) On the day after the above development, 6 μL/well of the solution for transfection was added to each well for transfection of the cells in each well (the cell culture fluid volume in each well being about 90 μL). Three hours later, each of serial 10-fold dilutions of each test sample (generally 10^−5 M to 10^−11 M) as prepared using the above-prepared medium (DMEM/F-12) supplemented with 5×10^−9 M of 5a-dehydrotestosterone was added in 10 μL portions, and cultivation was continued at room temperature (the final test substance concentrations: 10^−6 M to 10^−12 M).
At 24 hours after addition of the serial dilutions of the test sample, the GFP fluorescence intensity in each well was measured at the excitation wavelength of 485 nm and fluorescence wavelength of 535 nm using Berthord's ARVO.
(§5) In FIGS. 5 and 6, the ordinate denotes the cell survival rate (%) (the relative EGFP fluorescence intensity value at each test substance concentration as determined by taking the EGFP fluorescence intensity value measured without addition of the test substance as 100; shown by curve (1)) as well as the luciferase activity percentage (shown by curve (2)). The abscissa denotes the test substance concentration (M).

androgen receptor = molecular target: T1, androgen receptor (Homo sapiens, UniProt P10275); experiment: Reporter gene assay for androgen receptor antagonist detection (luciferase activity); assay type: cell-based; details: for antagonistic activity against the androgen receptor (judgment): judged from luciferase activity with EGFP activity as indication of cytotoxicity
T1 construct: expressed in transfected cells; host or cells: CHO-K1 cells, transiently transfected with pZeoSV2-AR, pIND ARE-B10 and pcDNA-EGFP
T1 sequence (P10275 1-920): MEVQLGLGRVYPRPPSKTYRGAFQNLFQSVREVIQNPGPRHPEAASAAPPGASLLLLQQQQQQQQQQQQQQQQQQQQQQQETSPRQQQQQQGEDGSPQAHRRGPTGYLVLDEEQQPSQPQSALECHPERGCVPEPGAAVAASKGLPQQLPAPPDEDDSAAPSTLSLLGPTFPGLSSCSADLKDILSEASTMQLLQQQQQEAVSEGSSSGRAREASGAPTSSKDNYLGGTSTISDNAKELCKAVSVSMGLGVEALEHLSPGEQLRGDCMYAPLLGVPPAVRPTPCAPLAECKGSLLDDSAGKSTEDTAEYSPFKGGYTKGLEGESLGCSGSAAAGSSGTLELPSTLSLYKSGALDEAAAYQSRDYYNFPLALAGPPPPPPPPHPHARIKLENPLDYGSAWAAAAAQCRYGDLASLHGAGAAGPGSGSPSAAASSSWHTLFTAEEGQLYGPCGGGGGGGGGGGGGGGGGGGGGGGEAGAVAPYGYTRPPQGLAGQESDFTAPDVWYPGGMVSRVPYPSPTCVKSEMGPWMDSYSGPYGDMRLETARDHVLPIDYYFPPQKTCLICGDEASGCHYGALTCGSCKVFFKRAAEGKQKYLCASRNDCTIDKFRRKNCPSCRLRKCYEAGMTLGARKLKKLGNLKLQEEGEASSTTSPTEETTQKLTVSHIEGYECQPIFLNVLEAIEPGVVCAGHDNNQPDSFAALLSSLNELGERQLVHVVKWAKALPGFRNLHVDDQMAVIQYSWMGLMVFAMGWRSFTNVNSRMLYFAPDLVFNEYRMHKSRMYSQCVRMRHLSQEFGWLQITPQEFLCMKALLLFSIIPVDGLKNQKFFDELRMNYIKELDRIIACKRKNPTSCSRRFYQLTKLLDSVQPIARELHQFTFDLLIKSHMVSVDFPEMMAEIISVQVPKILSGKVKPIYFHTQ
Description: as §1, §2, §3, §4, §5

CHO-K1 cells [2] = assay type: cell-based; details: Chinese hamster, 24 h
Description: CHO-K1 cells (cells deposited with ATCC) were developed on a 96-well plate (8000 cells/well). On the next day, transfection was carried in each well with 50 ng/well of pGL3-Control (retaining the SV40 promoter and containing the luciferase gene; Promega) and 4 ng/well of pcDNA-EGFP using 0.15 μL of FuGENE6™ (Roche) (at room temperature).
To each well of the cells of the invention as prepared as described above under (4), 3 hours after transfection, DMSO was added to a final concentration of 0.125, 0.25, 1, 2, 4 or 10%.
After 24 hours following the addition of DMSO, the fluorescence intensity of EGFP expressed in each well was measured using Berthord's measuring apparatus ARVO. Immediately thereafter, the luciferase activity was measured using Steady-Glo™ (Promega) as a substrate and using Berthord's measuring apparatus ARVO.
(§6) In FIG. 4, the ordinate denotes the relative survival rate (%) (the relative measurement result value at each DMSO concentration with the measurement result in each test carried out without addition of DMSO being taken as 100), and the abscissa denotes the DMSO concentration (%).

CHO-K1 cells [3] = experiment: MTT assay of CHO-K1 cells with pGL3-Control alone, in the presence of DMSO (comparison); assay type: cell-based, hamster; details: 24 hours of culture with DMSO; relative to no DMSO = 100
Description: For comparison, the following MTT assay and AlamarBlue assay were carried out using the respective assay kits. Thus, CHO-K1 cells with pGL3-Control alone introduced therein were used in lieu of the above-prepared cells, DMSO was added to each well to the same concentration as mentioned above and, after 24 hours of culture, the MTT assay was carried out. The MTT measurement was performed as indicated in the manual attached to the product.
as §6

| SMILES | cytotoxic effect (CHO-K1 cells [1]) | antagonistic activity against the androgen receptor (judgment) (androgen receptor) | further results |
| --- | --- | --- | --- |
| O=[N+]([O-])c1ccc(Oc2c(Cl)cc(Cl)cc2Cl)cc1 [CNP, chloronirophen] | any cytotoxic effect will not manifest itself | has an antagonistic activity against the androgen receptor | – |
| C[S+](C)[O-] [DMSO, dimethyl sulfoxide] | – | – | DMSO concentration from which decreases in luciferase activity are observed (CHO-K1 cells [2]): about 0.25%; DMSO concentration at which a decrease in MTT activity is first observed (CHO-K1 cells [3]): ≥ 4% |
| CC(=O)O[C@]1(C(C)=O)CC[C@H]2[C@@H]3C=C(Cl)C4=CC(=O)[C@@H]5C[C@@H]5[C@]4(C)[C@H]3CC[C@@]21C [cyproterone acetate, Cyproterone acetate] | no cytotoxic effect was observed | – | EGFP activity (cell survival rate) (CHO-K1 cells [1]; Chinese hamster, 24 h): ~100% |
| CC1(C)CNC(=NN=C(/C=C/c2ccc(C(F)(F)F)cc2)/C=C/c2ccc(C(F)(F)F)cc2)NC1 [hydramethylnone, Hydramethylnone] | – | no antagonistic activity | luciferase activity (androgen receptor; with 5×10^−9 M 5α-dehydrotestosterone, 24 hours after addition of test substance): decreases in luciferase activity were due to cytotoxicity |
